Results: patent publication US20220241266A1, “COMPOSITIONS AND METHODS USING TRIGONELLINE AND HIGH PROTEIN FOR PREVENTING OR TREATING CONDITIONS OR DISORDERS IN SKELETAL MUSCLE” (SOCIETE DES PRODUITS NESTLE S.A., priority 2019, published 2022)

Assays:
C. elegans [1] = conditions: 1 mM trigonelline chloride, day 8 old worms, vs control
Method: Absolute quantification of the mtDNA copy number in wild type N2 worms was performed by real-time PCR. Relative values for nduo-1, and act-1 were compared within each sample to generate a ratio representing the relative level of mitochondrial DNA per nuclear genome. The average of at least two technical repeats was used for each biological data point. Each experiment was performed on at least ten independent biological samples (individual worms). Trigonelline treatment with 1 mM trigonelline chloride and experimental measurements were started at Day 1 of wild type N2 worm adulthood, in a regimen of chronic exposure till experiments termination.

[2] = tested on: RW1596 (myo-3p::GFP) worms; conditions: 1 mM trigonelline chloride, 11 day old worms vs age matched control
Method: RW1596 (myo-3p::GFP) worms were collected at Day 1 (young adults) and at Day 11 (aged animals) for muscle integrity assessment. Worms were immobilized with tetramisole and analyzed by confocal microscopy, to assess the muscle fibers morphology shown by GFP fluorescence imaging. Trigonelline treatment with 1 mM trigonelline chloride and experimental measurements were started at Day 1 of wild type N2 worm adulthood, in a regimen of chronic exposure till experiments termination.

[3] = tested on: Human Skeletal Muscle Myotubes (HSMM); conditions: 6 h, 500 μm
Method: Human primary myoblasts from two different donors were seeded in 6 well plates at a density of 200,000 cells per well in skeletal muscle growth medium (SKM-M, AMSbio). After one day, the differentiation was induced by a medium change for 4 days using differentiation culture medium (Gibco No. 31330-028). Cells were treated with isotopically labelled trigonelline (^13C carbonyl; 3^2H on methyl) for 6 h.
Cell extracts were separated on a Vanquish UHPLC+focused LC system (Thermo Scientific) with a hydrophilic liquid chromatography (HILIC) iHILIC-Fusion(P) column (Hilicon) carrying the dimensions 150×2.1 mm, 5 μm and a guard column (iHILIC-fusion(P), Hilicon) in front. The separation of metabolites was achieved by applying a linear solvent gradient in normal phase at 0.25 mL/min flow rate and 35° C. of temperature. As mobile phase, solvent A was water with 10 mM ammonium acetate and 0.04% (v/v) ammonium hydroxide, pH ˜9.3, and solvent B was acetonitrile.
The eluting metabolites were analyzed with an Orbitrap Fusion Lumos mass spectrometer (Thermo Scientific) with a heated electrospray ionization (H-ESI) source in positive and negative mode at a resolution of 60,000 at m/z of 200. Instrument control and data analysis were conducted using Xcalibur (Thermo Scientific).

C. elegans [4] = conditions: 1 mM, vs control
Method: C. elegans mobility test was performed using the Movement Tracker software (Mouchiroud, L. et al. Curr Protoc Neurosci 77, 8.37.1-8.37.21 (2016)). The experiments were repeated at least twice. Trigonelline treatment and experimental measurements were started at Day 1 of wild type N2 worm adulthood, in a regimen of chronic exposure till experiments termination.

C. elegans [5] = conditions: 1 mM, chronic exposure from Day 1 adulthood
Method: Worm lifespan tests were performed using about 100 animals per condition and scored manually every other day. Trigonelline treatment and experimental measurements were started at Day 1 of wild type N2 worm adulthood, in a regimen of chronic exposure till experiments termination.

C. elegans [6] = conditions: 1 mM, day 8 and day 11 old worms, vs control
Source text: 45 to 60 worms per condition were manually scored for mobility after poking. Worms that were unable to respond to any repeated stimulation were scored as dead. […] Trigonelline treatment and experimental measurements were started at Day 1 of wild type N2 worm adulthood, in a regimen of chronic exposure till experiments termination.

[7] = tested on: Human Skeletal Muscle Myotubes (HSMM); assay: Colorimetric NAD+ quantification in differentiated human primary myoblasts; assay type: cell-based; conditions: 16 h, different doses
Method: After one day, the differentiation is induced by a medium change for 4 days. Cells were treated with synthetic trigonelline monohydrate (FIG. 4A) or with Fenugreek seed extract enriched in trigonelline containing 40.45% trigonelline (FIG. 4B) for 16 h at difference doses. NAD^+ was measured using colorimetric NAD^+ quantification assay (Biovision NAD^+/NADH Quantitation Colorimetric Kit #k337-100).

C57BL/6JRj male mice = assay: Liver NAD+ in mice after oral gavage; assay type: in vivo; conditions: equimolar of 300 mg/kg trigonelline, 120 minutes
Method: FIG. 5—Liver NAD^+ levels of C57BL/6JRj mice measured 120 minutes after administration of 300 mg/kg trigonelline chloride or an equimolar amount of fenugreek seed extract by oral gavage
10 weeks C57BL/6JRj male mice received trigonelline (sigma #T5509) or fenugreek seed extract enriched in trigonelline (40.45% trigonelline) by oral gavage (equimolar of 300 mg/kg trigonelline, n=8/group). After 120 minutes treatment, the liver was harvested and flash frozen in liquid nitrogen. NAD^+ was measured in liver using an enzymatic method adapted from Dall, M., et al., Mol Cell Endocrinol, 2018. 473: p. 245-256.

With `C[n+]1cccc(C(=O)[O-])c1` [trigonelline, 1-methylpyridin-1-ium-3-carboxylate] the “ratio of mitochondrial-encoded gene (nduo-1) to nuclear-encoded gene (act-1)” value (C. elegans [1]) was “higher than in the control group”, the “myofibrillar structure (GFP-tagged myosin)” value [2] was “improved more organized myofibrillar structure” and the “NAD+ relative concentration relative to control (LC-MS)” value ([3]; HSMM from 2 donors) was “enhancement of NAD+”.

For `[2H]C([2H])([2H])[n+]1cccc([13C](=O)[O-])c1` [labelled trigonelline], the “relative abundance of labelled NAD+ (M+1)” value ([3]; HSMM, vs naturally occurring NAD+ control) was “increase in relative abundance of labelled NAD+ (M+1)”.

With `C[n+]1cccc(C(=O)O)c1.[Cl-]` [trigonelline chloride] the “distance travelled during spontaneous mobility assay” value (C. elegans [4]; advanced aging phase) was “significantly increased”, the “mean speed during spontaneous mobility assay” value (C. elegans [4]; from day 1 adulthood) was “increased the mean speed compared to the control” and the increase of lifespan (C. elegans [5]) was 21%. For the same molecule, the “stimulated mobility score (worms responsive to a physical stimulus)” value (C. elegans [6]) was “more responsive to a physical stimulus than the control”.

`C[n+]1cccc(C(=O)[O-])c1` [chemically synthesized trigonelline, trigonelline monohydrate] was tested, and the “NAD+ content compared to the control” value [7] was “significant increase in NAD^+ content” and the “NAD+ content in the liver compared to the control” value (C57BL/6JRj male mice) was “significant increase in NAD^+ content in the liver”.
